Results taken from patent US20260015358A1, “BICYCLIC DERIVATIVES, COMPOSITIONS AND USES THEREOF” (Danatlas Pharmaceuticals Co., Ltd., priority 2023, published 2026).
pIC50: −log10 of the molar value.

Key:
[1] = target: T1, WRN [UniPro: Q14191 (WRN_HUMAN), N500-C946] (Homo sapiens (Human), UniProt Q14191); test: WRN unwinding assay (FORKF DNA, fluorescence); assay type: biochemical; conditions: Table 14
[2] = target: T1, WRN [UniPro: Q14191 (WRN_HUMAN), N500-C946]; test: WRN ATPase assay (ADP-Glo); assay type: biochemical; conditions: WRN enzymatic activity assay

T1 sequence (Q14191 500-946): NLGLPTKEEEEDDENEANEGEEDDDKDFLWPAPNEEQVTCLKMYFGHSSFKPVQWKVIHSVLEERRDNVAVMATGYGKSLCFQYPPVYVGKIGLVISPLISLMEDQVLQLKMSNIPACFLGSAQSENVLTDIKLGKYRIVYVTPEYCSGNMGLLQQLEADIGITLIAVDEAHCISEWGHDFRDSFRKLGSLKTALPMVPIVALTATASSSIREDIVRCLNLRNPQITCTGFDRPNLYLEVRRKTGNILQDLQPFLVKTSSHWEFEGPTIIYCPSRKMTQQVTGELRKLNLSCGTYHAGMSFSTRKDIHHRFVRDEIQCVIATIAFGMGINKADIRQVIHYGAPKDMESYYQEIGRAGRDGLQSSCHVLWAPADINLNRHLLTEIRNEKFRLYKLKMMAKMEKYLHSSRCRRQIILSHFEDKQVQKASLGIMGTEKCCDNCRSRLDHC

| SMILES | pIC50 [1] | pIC50 [2] |
| --- | --- | --- |
| CCc1c(N2CCN(C(=O)CNC(=O)Nc3ccccc3C#N)CC2)c(=O)n2nc(C3=CCOCC3)nc2n1CC(=O)Nc1ccc(C(F)(F)F)cc1Cl [Example 187, N-(2-Chloro-4-(trifluoromethyl)phenyl)-2-(6-(4-(((2-cyanophenyl)carbamoyl)glycyl)piperazin-1-yl)-2-(3,6-dihydro-2H-pyran-4-yl)-5-ethyl-7-oxo-[1,2,4]triazolo[1,5-a]pyrimidin-4(7H)-yl)acetamide] | > 7.00 | > 7.00 |
| CCc1c(N2CCN(C(=O)CNC(=O)Nc3nccs3)CC2)c(=O)n2nc(C3=CCOCC3)nc2n1CC(=O)Nc1ccc(C(F)(F)F)cc1Cl [Example 188, N-(2-Chloro-4-(trifluoromethyl)phenyl)-2-(2-(3,6-dihydro-2H-pyran-4-yl)-5-ethyl-7-oxo-6-(4-((thiazol-2-ylcarbamoyl)glycyl)piperazin-1-yl)-[1,2,4]triazolo[1,5-a]pyrimidin-4(7H)-yl)acetamide] | > 7.00 | > 7.00 |
| CCc1c(N2CCN(C(=O)CNC(=O)N(C)Cc3ccccc3)CC2)c(=O)n2nc(C3=CCOCC3)nc2n1CC(=O)Nc1ccc(C(F)(F)F)cc1Cl [Example 189, 2-(6-(4-((Benzyl(methyl)carbamoyl)glycyl)piperazin-1-yl)-2-(3,6-dihydro-2H-pyran-4-yl)-5-ethyl-7-oxo-[1,2,4]triazolo[1,5-a]pyrimidin-4(7H)-yl)-N-(2-chloro-4-(trifluoromethyl)phenyl)acetamide] | > 7.00 | > 7.00 |
| CCc1c(N2CCN(C(=O)CNC(=O)NCC3CC3)CC2)c(=O)n2nc(C3=CCOCC3)nc2n1CC(=O)Nc1ccc(C(F)(F)F)cc1Cl [Example 190, N-(2-Chloro-4-(trifluoromethyl)phenyl)-2-(6-(4-(((cyclopropylmethyl)carbamoyl)glycyl)piperazin-1-yl)-2-(3,6-dihydro-2H-pyran-4-yl)-5-ethyl-7-oxo-[1,2,4]triazolo[1,5-a]pyrimidin-4(7H)-yl)acetamide] | > 7.00 | > 7.00 |
| CCc1c(N2CCN(C(=O)CNC(=O)NCc3ccccc3F)CC2)c(=O)n2nc(C3=CCOCC3)nc2n1CC(=O)Nc1ccc(C(F)(F)F)cc1Cl [Example 191, N-(2-Chloro-4-(trifluoromethyl)phenyl)-2-(2-(3,6-dihydro-2H-pyran-4-yl)-5-ethyl-6-(4-(((2-fluorobenzyl)carbamoyl)glycyl)piperazin-1-yl)-7-oxo-[1,2,4]triazolo[1,5-a]pyrimidin-4(7H)-yl)acetamide] | > 7.00 | > 7.00 |
| CCc1c(N2CCN(C(=O)CNC(=O)N3Cc4ccncc4C3)CC2)c(=O)n2nc(C3=CCOCC3)nc2n1CC(=O)Nc1ccc(C(F)(F)F)cc1Cl [Example 192, N-(2-(4-(4-(2-((2-Chloro-4-(trifluoromethyl)phenyl)amino)-2-oxoethyl)-2-(3,6-dihydro-2H-pyran-4-yl)-5-ethyl-7-oxo-4,7-dihydro-[1,2,4]triazolo[1,5-a]pyrimidin-6-yl)piperazin-1-yl)-2-oxoethyl)-1,3-dihydro-2H-pyrrolo[3,4-c]pyridine-2-carboxamide] | > 7.00 | > 7.00 |
| CCc1c(N2CCN(C(=O)CNC(=O)N3CCc4cccc(F)c43)CC2)c(=O)n2nc(C3=CCOCC3)nc2n1CC(=O)Nc1ccc(C(F)(F)F)cc1Cl [Example 193, N-(2-(4-(4-(2-((2-Chloro-4-(trifluoromethyl)phenyl)amino)-2-oxoethyl)-2-(3,6-dihydro-2H-pyran-4-yl)-5-ethyl-7-oxo-4,7-dihydro-[1,2,4]triazolo[1,5-a]pyrimidin-6-yl)piperazin-1-yl)-2-oxoethyl)-7-fluoroindoline-1-carboxamide] | > 7.00 | > 7.00 |
| CCc1c(N2CCN(S(=O)(=O)NC(=O)c3ccccc3)CC2)c(=O)n2nc(C3=CCOCC3)nc2n1CC(=O)Nc1ccc(C(F)(F)F)cc1Cl [Example 194, N-((4-(4-(2-((2-Chloro-4-(trifluoromethyl)phenyl)amino)-2-oxoethyl)-2-(3,6-dihydro-2H-pyran-4-yl)-5-ethyl-7-oxo-4,7-dihydro-[1,2,4]triazolo[1,5-a]pyrimidin-6-yl)piperazin-1-yl)sulfonyl)benzamide] | > 7.00 | > 7.00 |
| CCc1c(N2CCN(C(=O)c3ncc4ncsc4c3O)CC2)c(=O)n2nc(C3=CCOCC3)nc2n1CC(=O)Nc1ccc(C(F)(F)F)cc1Cl [Example 195, N-(2-Chloro-4-(trifluoromethyl)phenyl)-2-(2-(3,6-dihydro-2H-pyran-4-yl)-5-ethyl-6-(4-(7-hydroxythiazolo[4,5-c]pyridine-6-carbonyl)piperazin-1-yl)-7-oxo-[1,2,4]triazolo[1,5-a]pyrimidin-4(7H)-yl)acetamide] | > 7.00 | > 7.00 |
| CCc1c(N2CCN(C(=O)c3ncc4nc(Cl)sc4c3O)CC2)c(=O)n2nc(C3=CCOCC3)nc2n1CC(=O)Nc1ccc(C(F)(F)F)cc1Cl [Example 196, N-(2-Chloro-4-(trifluoromethyl)phenyl)-2-(6-(4-(2-chloro-7-hydroxythiazolo[4,5-c]pyridine-6-carbonyl)piperazin-1-yl)-2-(3,6-dihydro-2H-pyran-4-yl)-5-ethyl-7-oxo-[1,2,4]triazolo[1,5-a]pyrimidin-4(7H)-yl)acetamide] | > 7.00 | > 7.00 |
| CCc1c(N2CCN(C(=O)c3cc4sccc4[nH]c3=O)CC2)c(=O)n2nc(C3=CCOCC3)nc2n1CC(=O)Nc1ccc(C(F)(F)F)cc1Cl [Example 197, N-(2-Chloro-4-(trifluoromethyl)phenyl)-2-(2-(3,6-dihydro-2H-pyran-4-yl)-5-ethyl-7-oxo-6-(4-(5-oxo-4,5-dihydrothieno[3,2-b]pyridine-6-carbonyl)piperazin-1-yl)-[1,2,4]triazolo[1,5-a]pyrimidin-4(7H)-yl)acetamide] | > 7.00 | > 7.00 |
| CCc1c(N2CCN(C(=O)c3c(O)nn4c(Cl)cccc34)CC2)c(=O)n2nc(C3=CCOCC3)nc2n1CC(=O)Nc1ccc(C(F)(F)F)cc1Cl [Example 198, 2-(6-(4-(7-Chloro-2-hydroxypyrazolo[1,5-a]pyridine-3-carbonyl)piperazin-1-yl)-2-(3,6-dihydro-2H-pyran-4-yl)-5-ethyl-7-oxo-[1,2,4]triazolo[1,5-a]pyrimidin-4(7H)-yl)-N-(2-chloro-4-(trifluoromethyl)phenyl)acetamide] | > 7.00 | > 7.00 |
| CCc1c(N2CCN(C(=O)c3ncc4nc(Cl)sc4c3O)CC2)c(=O)n2nc(C3=CCOCC3)nc2n1CC(=O)Nc1ccc(C(F)(F)F)cc1F [Example 199, 2-(6-(4-(2-Chloro-7-hydroxythiazolo[4,5-c]pyridine-6-carbonyl)piperazin-1-yl)-2-(3,6-dihydro-2H-pyran-4-yl)-5-ethyl-7-oxo-[1,2,4]triazolo[1,5-a]pyrimidin-4(7H)-yl)-N-(2-fluoro-4-(trifluoromethyl)phenyl)acetamide] | > 7.00 | > 7.00 |
| CCc1c(N2CCN(C(=O)c3ccn4nccc4c3O)CC2)c(=O)n2nc(C3=CCOCC3)nc2n1CC(=O)Nc1ccc(C(F)(F)F)cc1Cl [Example 200, N-(2-Chloro-4-(trifluoromethyl)phenyl)-2-(2-(3,6-dihydro-2H-pyran-4-yl)-5-ethyl-6-(4-(4-hydroxypyrazolo[1,5-a]pyridine-5-carbonyl)piperazin-1-yl)-7-oxo-[1,2,4]triazolo[1,5-a]pyrimidin-4(7H)-yl)acetamide] | > 7.00 | > 7.00 |
